ChEMBL document CHEMBL1201862, “PubChem BioAssay data set” (2004)
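Cells were grown in 96-well plates and exposed to each compound for 48 hours at five concentrations; endpoints were interpolated linearly between bracketing concentrations, or set to the highest concentration if not reached. The concentration for 50% growth inhibition is given as GI50.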 The source made the active and inactive calls. Cut-off read from the data, not from the text of the source: active = GI50 up to about 1.1 µM and inactive = higher.

Columns and labels:
Experiment in all cases: NCI-60 cell line screen, 48 h
KM12 = system: KM12
HOP-62 = system: HOP-62
RPMI-8226 = system: RPMI-8226
SN12C = system: SN12C
NCI-H460 = system: NCI-H460
HCC 2998 = system: HCC 2998
TK-10 = system: TK-10
SK-OV-3 = system: SK-OV-3
SF-539 = system: SF-539
COLO 205 = system: COLO 205
M14 = system: M14
SNB-75 = system: SNB-75
NCI-H522 = system: NCI-H522
OVCAR-4 = system: OVCAR-4
SW-620 = system: SW-620
EKVX = system: EKVX
UO-31 = system: UO-31
HCT-15 = system: HCT-15
HL-60 = system: HL-60
HT-29 = system: HT-29
SF-295 = system: SF-295
Malme-3M = system: Malme-3M
NCI-H23 = system: NCI-H23
SNB-19 = system: SNB-19
SK-MEL-5 = system: SK-MEL-5
OVCAR-3 = system: OVCAR-3
MDA-N = system: MDA-N
MDA-MB-435 = system: MDA-MB-435
NCI-H226 = system: NCI-H226
SK-MEL-2 = system: SK-MEL-2
OVCAR-5 = system: OVCAR-5
786-0 = system: 786-0
RXF 393 = system: RXF 393
SK-MEL-28 = system: SK-MEL-28
SF-268 = system: SF-268
ACHN = system: ACHN
K562 = system: K562
A549 = system: A549
DU-145 = system: DU-145
U-251 = system: U-251
SR = system: SR
A498 = system: A498
BT-549 = system: BT-549
MDA-MB-231 = system: MDA-MB-231
IGROV-1 = system: IGROV-1
CCRF-CEM = system: CCRF-CEM
OVCAR-8 = system: OVCAR-8
UACC-62 = system: UACC-62
MOLT-4 = system: MOLT-4
Hs-578T = system: Hs-578T
NCI/ADR-RES = system: NCI/ADR-RES
LOX IMVI = system: LOX IMVI
MCF7 = system: MCF7
PC-3 = system: PC-3
T47D = system: T47D

## O=c1cc(-c2ccccc2)oc2c(-c3cc(Cl)cc4c(=O)cc(-c5ccccc5)oc34)cc(Cl)cc12
KM12
  GI50: 20 µM (inactive)
HOP-62
  GI50: 31 µM (inactive)
RPMI-8226
  GI50: 25.2 µM (inactive)
SN12C
  GI50: 32.8 µM (inactive)
NCI-H460
  GI50: 22.6 µM (inactive)
HCC 2998
  GI50: 47.9 µM (inactive)
TK-10
  GI50: 45 µM (inactive)
SK-OV-3
  GI50: 16.7 µM (inactive)
SF-539
  GI50: 17.8 µM (inactive)
COLO 205
  GI50: 31.8 µM (inactive)
M14
  GI50: 27.7 µM (inactive)
SNB-75
  GI50: 4.49 µM (inactive)
NCI-H522
  GI50: 14.1 µM (inactive)
OVCAR-4
  GI50: 41.9 µM (inactive)
SW-620
  GI50: 19.9 µM (inactive)
EKVX
  GI50: 22.2 µM (inactive)
UO-31
  GI50: 16.8 µM (inactive)
HCT-15
  GI50: 29.5 µM
HL-60
  GI50: 50.1 µM (inactive)
HT-29
  GI50: 34 µM (inactive)
SF-295
  GI50: 22.4 µM (inactive)
Malme-3M
  GI50: 27 µM (inactive)
NCI-H23
  GI50: 25 µM (inactive)
SNB-19
  GI50: 29.4 µM (inactive)
SK-MEL-5
  GI50: 15.5 µM (inactive)
OVCAR-3
  GI50: 24.3 µM (inactive)
MDA-N
  GI50: 17.3 µM (inactive)
MDA-MB-435
  GI50: 26.5 µM (inactive)
NCI-H226
  GI50: 21.5 µM (inactive)
SK-MEL-2
  GI50: 35.7 µM (inactive)
OVCAR-5
  GI50: 37.9 µM (inactive)
786-0
  GI50: 27.4 µM (inactive)
RXF 393
  GI50: 26.2 µM (inactive)
SK-MEL-28
  GI50: 35 µM (inactive)
SF-268
  GI50: 32.8 µM (inactive)
ACHN
  GI50: 16.2 µM (inactive)
K562
  GI50: 6.87 µM (inactive)
A549
  GI50: 29.1 µM (inactive)
DU-145
  GI50: 36.3 µM (inactive)
U-251
  GI50: 19 µM (inactive)
SR
  GI50: > 100 µM (inactive)
A498
  GI50: 16.1 µM (inactive)
BT-549
  GI50: 29.6 µM (inactive)
MDA-MB-231
  GI50: 32.7 µM (inactive)
IGROV-1
  GI50: 22.5 µM (inactive)
CCRF-CEM
  GI50: 5.48 µM (inactive)
OVCAR-8
  GI50: 28.9 µM (inactive)
UACC-62
  GI50: 11.6 µM (inactive)
MOLT-4
  GI50: 10.2 µM (inactive)
Hs-578T
  GI50: 15.3 µM (inactive)
NCI/ADR-RES
  GI50: 28.8 µM (inactive)
LOX IMVI
  GI50: 11.3 µM (inactive)
MCF7
  GI50: 24.5 µM (inactive)
PC-3
  GI50: 7.87 µM (inactive)
T47D
  GI50: 16.4 µM (inactive)
